In ChEMBL document CHEMBL1201862, “PubChem BioAssay data set” (2004):
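Exposure lasted 48 hours, with cells grown in 96-well plates and compounds tested at five concentrations. At the GI50, growth is halved.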 Activity calls are given as the source filed them. Cut-off read from the data, not from the text of the source: active = GI50 up to about 1.1 µM and inactive = higher.

Assays:
Assay in all cases: inhibition of tumour cell growth, NCI panel, 48 h
NCI-H23 = test system: NCI-H23
TK-10 = test system: TK-10
SK-OV-3 = test system: SK-OV-3
NCI-H226 = test system: NCI-H226
OVCAR-8 = test system: OVCAR-8
BT-549 = test system: BT-549
RXF 393 = test system: RXF 393
SNB-19 = test system: SNB-19
HT-29 = test system: HT-29
OVCAR-4 = test system: OVCAR-4
CCRF-CEM = test system: CCRF-CEM
NCI-H460 = test system: NCI-H460
LOX IMVI = test system: LOX IMVI
SF-539 = test system: SF-539
RPMI-8226 = test system: RPMI-8226
HCT-116 = test system: HCT-116
K562 = test system: K562
SK-MEL-5 = test system: SK-MEL-5
UACC-257 = test system: UACC-257

Structure (SMILES)	GI50 (NCI-H23)	GI50 (TK-10)	GI50 (SK-OV-3)	GI50 (NCI-H226)	GI50 (OVCAR-8)	GI50 (BT-549)	GI50 (RXF 393)	GI50 (SNB-19)	GI50 (HT-29)	GI50 (OVCAR-4)	GI50 (CCRF-CEM)	GI50 (NCI-H460)	GI50 (LOX IMVI)	GI50 (SF-539)	GI50 (RPMI-8226)	GI50 (HCT-116)	GI50 (K562)	GI50 (SK-MEL-5)	GI50 (UACC-257)
O=C1NC(c2ccccc2)C1N(Cc1ccccc1)Cc1ccccc1 (stereo not given)	> 100 µM (inactive)	> 100 µM (inactive)	> 100 µM (inactive)	> 100 µM (inactive)	> 100 µM (inactive)	> 100 µM (inactive)	> 100 µM (inactive)	> 100 µM (inactive)	> 100 µM (inactive)	59.8 µM (inactive)	> 100 µM (inactive)	> 100 µM (inactive)	> 100 µM (inactive)	> 100 µM (inactive)	> 100 µM (inactive)	> 100 µM (inactive)	> 100 µM (inactive)	> 100 µM (inactive)	> 100 µM (inactive)
CC1=C(C(=O)OC(C)C)C(c2ccccc2[N+](=O)[O-])C(C(=O)OC(CO[N+](=O)[O-])CO[N+](=O)[O-])=C(C)N1 (stereo not given)	4.27 µM (inactive)	6.27 µM (inactive)	3.15 µM (inactive)	7.16 µM (inactive)	3.28 µM (inactive)	3.52 µM (inactive)	2.7 µM (inactive)	3.44 µM (inactive)	2.81 µM (inactive)	2.12 µM (inactive)	2.09 µM (inactive)	3.1 µM (inactive)	2.68 µM (inactive)	3.18 µM (inactive)	2.98 µM (inactive)	2.55 µM (inactive)	2.81 µM (inactive)	2.7 µM (inactive)	3.85 µM (inactive)
O=C(NCCCc1cn[nH]c(=O)n1)c1cccc2nc3ccccc3nc12	> 100 µM (inactive)	36.5 µM (inactive)	> 100 µM (inactive)	> 100 µM (inactive)	61.9 µM (inactive)	> 100 µM (inactive)	41.5 µM (inactive)	> 100 µM (inactive)	> 100 µM (inactive)	> 100 µM (inactive)	> 100 µM (inactive)	> 100 µM (inactive)	> 100 µM (inactive)	> 100 µM (inactive)	> 100 µM (inactive)	42 µM (inactive)	> 100 µM (inactive)	> 100 µM (inactive)	> 100 µM (inactive)
C[C@]12CC[C@H]3[C@@H](CCC4=C[C@@H](OC5OCC(OC6OC(CO)C(O)C(O)C6O)C(O)C5O)CC[C@@]43C=O)[C@@]1(O)CCC2C1=CC(=O)OC1 (stereo not given in full)	0.195 µM (active)	0.681 µM (active)	1.13 µM (inactive)	2.15 µM (inactive)	0.931 µM (active)	0.211 µM (active)	0.23 µM (active)	3.11 µM (inactive)	0.832 µM (active)	0.237 µM (active)	0.244 µM (active)	0.0982 µM (active)	0.63 µM (active)	0.391 µM (active)	0.628 µM (active)	0.322 µM (active)	0.397 µM (active)	0.385 µM (active)	1.42 µM (inactive)
COc1ccc(-n2c(=O)n(C)c(=O)n2-c2c(C)c(C)c(C)c(C)c2C)cc1	> 100 µM (inactive)	> 100 µM (inactive)	> 100 µM (inactive)	> 100 µM (inactive)	> 100 µM (inactive)	> 100 µM (inactive)	> 100 µM (inactive)	> 100 µM (inactive)	> 100 µM (inactive)	> 100 µM (inactive)	0.148 µM (active)	> 100 µM (inactive)	> 100 µM (inactive)	> 100 µM (inactive)	> 100 µM (inactive)	> 100 µM (inactive)	> 100 µM (inactive)	> 100 µM (inactive)	> 100 µM (inactive)
COC(=O)CCC12CCC(O1)c1ccccc12 (stereo not given)	> 100 µM (inactive)	> 100 µM (inactive)	> 100 µM (inactive)	> 100 µM (inactive)	> 100 µM (inactive)	> 100 µM (inactive)	> 100 µM (inactive)	> 100 µM (inactive)	> 100 µM (inactive)	> 100 µM (inactive)	> 100 µM (inactive)	> 100 µM (inactive)	> 100 µM (inactive)	> 100 µM (inactive)	> 100 µM (inactive)	> 100 µM (inactive)	> 100 µM (inactive)	> 100 µM (inactive)	> 100 µM (inactive)
S=C1Cc2cc3ccccc3nc2-c2ccccc2N1	23.9 µM (inactive)	24.3 µM (inactive)	5.68 µM (inactive)	16.1 µM (inactive)	11.9 µM (inactive)	> 33.8 µM (inactive)	8.65 µM (inactive)	> 29.3 µM (inactive)	> 47.2 µM (inactive)	12.4 µM (inactive)	> 100 µM (inactive)	15.1 µM (inactive)	33.4 µM (inactive)	12.6 µM (inactive)	> 50.7 µM (inactive)	13.6 µM (inactive)	> 100 µM (inactive)	44.8 µM (inactive)	29.1 µM (inactive)
O=C1Nc2ccccc2SC1=C(C(=O)c1ccccc1)C(=O)c1ccccc1	29.7 µM (inactive)	63.4 µM (inactive)	16 µM (inactive)	45.8 µM (inactive)	52.4 µM (inactive)	30.5 µM (inactive)	55 µM (inactive)	41.2 µM (inactive)	32.4 µM (inactive)	43.2 µM (inactive)	4.17 µM (inactive)	28.1 µM (inactive)	31.3 µM (inactive)	39.6 µM (inactive)	28.8 µM (inactive)	29.5 µM (inactive)	4.06 µM (inactive)	32.9 µM (inactive)	33.3 µM (inactive)
Nc1nc(N)c(/N=N/c2ccc(C(=O)O)c(O)c2)c(N)n1	> 100 µM (inactive)	> 100 µM (inactive)	> 100 µM (inactive)	> 100 µM (inactive)	> 100 µM (inactive)	> 100 µM (inactive)	> 100 µM (inactive)	> 100 µM (inactive)	> 100 µM (inactive)	18.5 µM (inactive)	> 100 µM (inactive)	> 100 µM (inactive)	> 100 µM (inactive)	> 100 µM (inactive)	> 100 µM (inactive)	> 100 µM (inactive)	< 0.01 µM (active)	> 100 µM (inactive)	> 100 µM (inactive)
O=C(CC(c1ccccc1)c1c(O)c2ccccc2oc1=O)c1ccccc1 (stereo not given)	53.3 µM (inactive)	> 100 µM (inactive)	67.9 µM (inactive)	71.9 µM (inactive)	> 100 µM (inactive)	49.5 µM (inactive)	> 53.1 µM (inactive)	> 95.7 µM (inactive)	> 94.8 µM (inactive)	56.1 µM (inactive)	59.7 µM (inactive)	65.5 µM (inactive)	> 67.8 µM (inactive)	> 100 µM (inactive)	56.1 µM (inactive)	> 84.5 µM (inactive)	61.5 µM (inactive)	> 100 µM (inactive)	> 83.9 µM (inactive)
